Experimental data from US9295732B2, “Conjugated TLR7 and/or TLR8 and TLR2 polycationic agonists” (CAYLA, priority 2013, dated 2016).
“And” between values parts separate entries of the source, which are not always exact repeats. Equal values may be shown once.

What was measured:
[1] = system: endogenous TLR2 and TLR7 in RAW-Blue™ Cells; test: RAW-Blue Cells NF-κB/AP-1 SEAP reporter assay; type: cell-based, mouse; conditions: 24 hours, OD at 655 nm, FIG. 4
Procedure: (§1) Cell-based assays were carried out using TLR7 and TLR2 reporter cell lines (InvivoGen). The reporter cell lines are engineered HEK293 cells, a human embryonic kidney cell line (ATCC, CRL-1573) that stably express either murine TLR7 (HEK-Blue™ mTLR7) or human TLR7 (HEK-Blue™ hTLR7) or human TLR2 (HEK-Blue™ hTLR2) with an NF-κB-inducible secreted embryonic alkaline phosphatase (SEAP) as the reporter gene. The SEAP reporter gene is under the control of the NF-κB and AP-1-inducible promoter, which, upon treatment with a corresponding TLR ligand and activation of NF-κB and AP-1, induces the production of SEAP. Detection of SEAP is measured following culturing cells in HEK-Blue™ Detection media (InvivoGen). HEK-Blue™ Detection contains a SEAP substrate that when hydrolysed by SEAP produces a colorimetric change allowing for detection of SEAP as the protein is secreted. […] These assays were carried out using RAW-Blue™ Cells (InvivoGen), derived from RAW 264.7 mouse leukemic monocyte macrophage cell line (ATCC, CRL 2278) stably overexpressing a NF-B/AP-1 inducible SEAP reporter constructs.
(§2) To perform the assay, cells were seeded on 96 well microliter plates at 50,000 or 100,000 cells per well for HEK-Blue™ Cells and RAW-Blue™ Cells respectively, and cultured at 37° C. in the presence of the conjugated compounds The TLR7-TLR2 polyamine molecules were prepared as follows: First, stock solutions of the conjugated compounds of the invention were prepared in ethanol or water to a concentration of 10 mg/ml.
(§3) The working dilutions of the conjugated TLR7-TLR2 polyamine agonists made up in water or PBS were directly added to the reporter cell lines at a final concentration ranging from 10 μg/mL to 10 pg/ml and incubated at 37° C. for 24 hours. After 24 hours of incubation, the effect on reporter gene activity was determined by reading the OD at 655 nm using iMark™ Microplate Reader (BIO-RAD).

plasmid DNA (pDNA) = test: Gel shift (mobility shift) assay of pDNA complexation; type: binding; conditions: pDNA:molecule ratio 3:24 (w:w), 0.8% agarose gel, compared to pDNA alone
Procedure: Then, 10 μl of pDNA:TLR7-TLR2 polyamine molecule complexes and 2 μl of charge buffer were mixed and loaded into wells of a 0.8% agarose gel. Samples were migrated through the gel in TAE buffer under 135 voltage for 21 mins and the migration of the pDNA was visualized following ethidium bromide staining under UV light. The ability of TLR7-TLR2 polyamine molecules to complex/associate with the pDNA was identified by partial or complete retardation of the pDNA migration toward the anode in the gel compared to pDNA alone. […] Ethidium bromide intercalation of pDNA in complex with molecules allowed visualization of complexed pDNA as a smear in the wells of the gel.

murine TLR7 = target: T1, murine TLR7 (Mus musculus, UniProt P58681); test: HEK-Blue mTLR7 NF-κB/AP-1 SEAP reporter assay; type: cell-based; conditions: HEK-Blue mTLR7 cells, 10 μg/mL to 10 pg/ml, 24 hours, OD at 655 nm, FIG. 2
T1 construct: host or cells: HEK293 (HEK-Blue™ mTLR7)
T1 sequence (P58681 27-1050): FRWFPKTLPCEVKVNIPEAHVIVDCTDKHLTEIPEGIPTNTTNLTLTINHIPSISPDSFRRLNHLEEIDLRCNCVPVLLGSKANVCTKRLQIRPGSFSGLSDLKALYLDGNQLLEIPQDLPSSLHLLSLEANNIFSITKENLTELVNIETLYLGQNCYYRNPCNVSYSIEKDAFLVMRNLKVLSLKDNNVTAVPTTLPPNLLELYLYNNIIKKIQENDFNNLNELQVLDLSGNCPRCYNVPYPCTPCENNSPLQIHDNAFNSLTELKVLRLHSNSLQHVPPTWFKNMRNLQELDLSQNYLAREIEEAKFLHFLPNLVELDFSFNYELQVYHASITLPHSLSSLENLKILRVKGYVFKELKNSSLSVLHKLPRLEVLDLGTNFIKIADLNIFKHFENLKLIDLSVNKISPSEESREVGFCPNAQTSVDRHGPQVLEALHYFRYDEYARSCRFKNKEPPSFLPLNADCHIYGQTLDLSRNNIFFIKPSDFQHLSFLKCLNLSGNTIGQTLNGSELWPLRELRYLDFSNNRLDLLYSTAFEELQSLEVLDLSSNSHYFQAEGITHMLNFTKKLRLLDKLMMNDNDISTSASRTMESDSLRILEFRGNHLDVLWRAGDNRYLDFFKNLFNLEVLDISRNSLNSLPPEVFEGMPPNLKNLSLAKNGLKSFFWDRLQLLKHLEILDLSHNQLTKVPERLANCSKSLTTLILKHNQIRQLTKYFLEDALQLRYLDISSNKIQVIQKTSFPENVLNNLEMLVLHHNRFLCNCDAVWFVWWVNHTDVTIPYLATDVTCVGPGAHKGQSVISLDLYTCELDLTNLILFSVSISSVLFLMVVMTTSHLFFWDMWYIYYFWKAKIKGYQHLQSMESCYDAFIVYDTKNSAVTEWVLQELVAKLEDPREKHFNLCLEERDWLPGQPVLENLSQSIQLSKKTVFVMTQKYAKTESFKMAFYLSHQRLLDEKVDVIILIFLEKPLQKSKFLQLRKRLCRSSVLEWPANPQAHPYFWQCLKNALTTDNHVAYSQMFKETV
Procedure: as §1, §2, §3

[2] = Nanoparticle (lipoplex) size by dynamic light scattering; conditions: 25° C., triplicate; for Mean Diameter: complexes with pDNA 3:24 (w:w), dynamic light scattering; for PDI: polydispersity index of complexes with pDNA 3:24 (w:w);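 on all read-outs here: lipoplexes of TLR7-TLR2 polyamine conjugates with plasmid DNA, formed over 30 min at room temperature in serum-free medium or 5% glucose, diameter in nm, PDI dimensionless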
human TLR7 = target: T2, human TLR7 (Homo sapiens, UniProt Q9NYK1); test: HEK-Blue hTLR7 NF-κB/AP-1 SEAP reporter assay; type: cell-based; conditions: HEK-Blue hTLR7 cells, 10 μg/mL to 10 pg/ml, 24 hours, OD at 655 nm, FIG. 1
T2 construct: host or cells: HEK293 (HEK-Blue™ hTLR7)
T2 sequence (Q9NYK1 27-1049): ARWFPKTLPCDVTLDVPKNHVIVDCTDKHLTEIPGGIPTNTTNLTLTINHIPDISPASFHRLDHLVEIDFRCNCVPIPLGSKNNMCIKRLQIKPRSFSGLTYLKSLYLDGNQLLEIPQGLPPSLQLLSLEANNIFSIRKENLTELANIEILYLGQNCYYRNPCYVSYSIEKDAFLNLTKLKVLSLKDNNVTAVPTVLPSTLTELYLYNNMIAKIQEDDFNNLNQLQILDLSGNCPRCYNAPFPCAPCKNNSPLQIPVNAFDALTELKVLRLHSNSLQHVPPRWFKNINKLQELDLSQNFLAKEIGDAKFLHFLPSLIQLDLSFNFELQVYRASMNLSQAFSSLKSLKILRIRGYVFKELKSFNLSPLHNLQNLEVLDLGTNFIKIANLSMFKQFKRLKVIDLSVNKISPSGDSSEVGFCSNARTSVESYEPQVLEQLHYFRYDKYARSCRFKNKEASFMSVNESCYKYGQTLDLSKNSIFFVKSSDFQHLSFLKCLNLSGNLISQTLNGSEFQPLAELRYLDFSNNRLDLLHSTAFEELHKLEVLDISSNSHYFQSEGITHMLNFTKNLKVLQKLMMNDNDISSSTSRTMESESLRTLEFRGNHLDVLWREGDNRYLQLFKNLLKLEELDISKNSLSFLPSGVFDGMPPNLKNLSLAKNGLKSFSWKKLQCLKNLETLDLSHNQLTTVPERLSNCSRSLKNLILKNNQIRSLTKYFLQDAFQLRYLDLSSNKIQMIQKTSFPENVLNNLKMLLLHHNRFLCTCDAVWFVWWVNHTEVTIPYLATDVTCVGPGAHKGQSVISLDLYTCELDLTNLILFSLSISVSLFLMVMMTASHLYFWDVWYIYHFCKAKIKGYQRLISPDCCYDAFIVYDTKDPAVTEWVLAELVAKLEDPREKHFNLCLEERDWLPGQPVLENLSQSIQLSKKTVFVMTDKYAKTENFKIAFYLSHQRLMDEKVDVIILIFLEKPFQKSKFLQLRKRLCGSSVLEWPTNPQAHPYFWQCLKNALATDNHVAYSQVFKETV
Procedure: as §1, §2, §3

human TLR2 = target: T3, human TLR2 (Homo sapiens, UniProt O60603); test: HEK-Blue hTLR2 NF-κB/AP-1 SEAP reporter assay; type: cell-based; conditions: HEK-Blue hTLR2 cells, 10 μg/mL to 10 pg/ml, 24 hours, OD at 655 nm, FIG. 3
T3 construct: host or cells: HEK293 (HEK-Blue™ hTLR2)
Procedure: as §1, §2, §3

T3 sequence (O60603 21-784): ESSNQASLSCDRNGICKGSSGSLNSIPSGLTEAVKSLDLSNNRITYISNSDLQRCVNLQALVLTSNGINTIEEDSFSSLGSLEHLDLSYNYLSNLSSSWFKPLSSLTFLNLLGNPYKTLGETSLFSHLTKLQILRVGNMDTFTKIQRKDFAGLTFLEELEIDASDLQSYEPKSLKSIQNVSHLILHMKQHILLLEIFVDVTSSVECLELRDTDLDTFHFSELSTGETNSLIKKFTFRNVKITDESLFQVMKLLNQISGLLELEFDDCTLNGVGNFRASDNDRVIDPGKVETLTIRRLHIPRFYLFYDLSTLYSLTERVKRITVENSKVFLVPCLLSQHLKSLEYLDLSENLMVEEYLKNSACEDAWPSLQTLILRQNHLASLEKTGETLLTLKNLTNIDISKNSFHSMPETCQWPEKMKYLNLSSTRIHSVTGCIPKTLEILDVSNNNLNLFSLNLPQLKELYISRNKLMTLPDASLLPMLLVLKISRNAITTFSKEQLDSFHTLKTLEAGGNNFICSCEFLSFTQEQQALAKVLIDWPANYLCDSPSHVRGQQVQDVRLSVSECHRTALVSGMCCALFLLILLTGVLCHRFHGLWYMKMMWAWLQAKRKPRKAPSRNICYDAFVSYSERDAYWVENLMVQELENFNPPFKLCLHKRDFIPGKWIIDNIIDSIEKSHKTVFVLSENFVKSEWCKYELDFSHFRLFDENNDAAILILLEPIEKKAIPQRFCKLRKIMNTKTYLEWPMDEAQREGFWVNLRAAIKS

Row | Compound | ability to activate endogenous TLR2 and TLR7 in RAW-Blue Cells [1] | ability to complex pDNA (retardation of pDNA migration in agarose gel) (plasmid DNA (pDNA)) | ability to activate mTLR7 (murine TLR7) | Mean Diameter [2] | PDI [2] | ability to activate hTLR7 (human TLR7) | ability to activate hTLR2 (human TLR2)
1 | CCCCCCCCCCCCCCCC(=O)OCC(CSC[C@H](N)C(=O)NCCCC[C@H](NC(=O)CNC(=O)c1ccc(Cn2c(O)nc3c(N)nc(NCCCC)nc32)cc1)C(=O)NCCCNCCCCNCCCN)OC(=O)CCCCCCCCCCCCCCC (stereo partly drawn) [CL487, (6R,13S)-6,27-diamino-13-(2-(4-((6-amino-2-(butylamino)-8-hydroxy-9H-purin-9-yl)methyl)benzamido)acetamido)-7,14-dioxo-4-thia-8,15,19,24-tetraazaheptacosane-1,2-diyl dipalmitate] | activate endogenous TLR2 and TLR7 | inability to migrate through an agarose gel | activate mTLR7 | 165.6 nm and 160.0 nm and 148.1 nm | 0.255 and 0.241 and 0.23 | activate hTLR7 | activate hTLR2
2 | CCCCCCCCCCCCCCCC(=O)OCC(CSC[C@H](N)C(=O)NCCCNCCCCNCCCN)OC(=O)CCCCCCCCCCCCCCC (some centres unmarked) [CL419] |  |  |  | 147.0 nm and 148.5 nm and 156.7 nm | 0.185 and 0.193 and 0.210 |  | 
3 | CCCCCCCCCCCCCCCC(=O)OCC(CSC[C@H](N)C(=O)NCCCC[C@H](NC(=O)c1ccc(Cn2c(O)nc3c(N)nc(NCCCC)nc32)cc1)C(=O)NCCCNCCCCNCCCN)OC(=O)CCCCCCCCCCCCCCC (stereo partly drawn) [CL486, (6R,13S)-6,27-diamino-13-(4-((6-amino-2-(butylamino)-8-hydroxy-9H-purin-9-yl)methyl)benzamido)-7,14-dioxo-4-thia-8,15,19,24-tetraazaheptacosane-1,2-diyl dipalmitate] | activate endogenous TLR2 and TLR7 | inability to migrate through an agarose gel | activate mTLR7 | 202.0 nm and 209.2 nm and 179.7 nm | 0.234 and 0.236 and 0.232 | activate hTLR7 | activate hTLR2
4 | CCCCCCCCCCCCCCCC(=O)N[C@@H](CSCC(COC(=O)CCCCCCCCCCCCCCC)OC(=O)CCCCCCCCCCCCCCC)C(=O)N[C@@H](CO)C(=O)N[C@@H](CCCCN)C(=O)N[C@@H](CCCCN)C(=O)N[C@@H](CCCCNC(=O)c1ccc(Cn2c(O)nc3c(N)nc(NCCCC)nc32)cc1)C(=O)N[C@@H](CCCCN)C(=O)O (stereo partly drawn) [CL535, (2S,5S,8S,11S,14S,17R)-5-(4-(4-((6-amino-2-(butylamino)-8-hydroxy-9H-purin-9-yl)methyl)benzamido)butyl)-2,8,11-tris(4-aminobutyl)-14-(hydroxymethyl)-4,7,10,13,16,24-hexaoxo-17-palmitamido-21-(palmitoyloxy)-23-oxa-19-thia-3,6,9,12,15-pentaazanonatriacontan-1-oic acid] | activate endogenous TLR2 and TLR7 | inability to migrate through an agarose gel | activate mTLR7 |  |  | activate hTLR7 | activate hTLR2
5 | CCCCCCCCCCCCCCCC(=O)N[C@@H](CSCC(COC(=O)CCCCCCCCCCCCCCC)OC(=O)CCCCCCCCCCCCCCC)C(=O)N[C@@H](CO)C(=O)N[C@@H](CCCCNC(=O)c1ccc(Cn2c(O)nc3c(N)nc(NCCCC)nc32)cc1)C(=O)N[C@@H](CCCCN)C(=O)N[C@@H](CCCCN)C(=O)N[C@@H](CCCCN)C(=O)O (stereo partly drawn) [CL537, (2S,5S,8S,11S,14S,17R)-11-(4-(4-((6-amino-2-(butylamino)-8-hydroxy-9H-purin-9-yl)methyl)benzamido)butyl)-2,5,8-tris(4-aminobutyl)-14-(hydroxymethyl)-4,7,10,13,16,24-hexaoxo-17-palmitamido-21-(palmitoyloxy)-23-oxa-19-thia-3,6,9,12,15-pentaazanonatria contan-1-oic acid] | activate endogenous TLR2 and TLR7 | inability to migrate through an agarose gel | activate mTLR7 |  |  | activate hTLR7 | activate hTLR2
